# Data as given in patent US20240209334A1, “SMALL-MOLECULE-ACTIVATED GLYCAN MODIFYING ENZYMES AND USES THEREOF” (President and Fellows of Harvard College, priority 2022, published 2024).
# What was measured:
# Assay type in all cases: cell-based, human
# [1] = system: MCF7-C181_D174N cells; assay: Cell viability, CCK-8 assay; details: 48 hours
# Text: (§1) In addition to serving as an activator for intein splicing, 4-HT is also known as the active metabolite of tamoxifen, an FDA-approved drug for treating breast cancer patients. Breast cancer cells also have elevated OGT expression (39) and decreased levels of OGA (40, 41), resulting in elevated O-GlcNAcylation in the proteome. OGT is usually required for tumor growth and metastasis (39), and low OGA expression is correlated with poor survival in breast cancer patients (FIG. 13). The ER positive breast cancer-derived MCF-7 cell line is sensitive to tamoxifen and 4-HT, resulting in suppression of cell proliferation, yet drug resistance occurs after long-term treatment (42). […] To determine if reduction of O-GlcNAc sensitized MCF-7 cells to 4-HT treatment, it was assessed whether 4-HT induced inhibition of breast cancer cell proliferation and OGA-intein activation worked synergistically to accelerate cell death (FIG. 5A). […] Next, these two cell lines were treated with 4-HT at increasing concentrations, and cell viability was measured after 48 hours. […] Given that 4-HT promoted MCF-7 cell death through apoptosis (43), the apoptosis of these cells under 4-HT treatment was further analyzed through flow cytometry analyses following Annexin V and DAPI staining. […]
# (§2) Cell viability assay. Cell viability was assessed by CCK-8 assay. […]
# [2] = system: MCF7-C181 cells; assay: Cell viability, CCK-8 assay; details: 48 hours
# Text: as §1, §2
# [3] = system: regular MCF-7 cells; assay: Cell viability, CCK-8 assay; details: 48 hours
# Text: as §1, §2
# [4] = system: MCF7-C181 cells; assay: Apoptosis, Annexin V/DAPI flow cytometry; details: 10 μM 4-HT for 24 hours
# Text: as §1
# (§3) Detection of cell apoptosis. […] Data was analyzed by FlowJo v10.
# [5] = system: MCF7-C181_D174N; assay: Apoptosis, Annexin V/DAPI flow cytometry; details: 10 μM 4-HT for 24 hours
# Text: as §1, §3
compound,measurement,setting,value
"CC/C(=C(\c1ccc(O)cc1)c1ccc(OCCN(C)C)cc1)c1ccccc1 [4-HT, 4-hydroxytamoxifen]",4-HT concentration required for suppressing survival,[1],> 5 µM
same,4-HT concentration giving almost complete cell survival inhibition,[2],5 µM
same,4-HT concentration required for suppressing survival,[3],> 5 µM
same,apoptotic cells,[4],6.84%
same,apoptotic cells,[5],6.09%
